Assay results as given in patent US20210070748A1, “INHIBITORS OF BRUTONS TYROSINE KINASE” (Pharmacyclics LLC, priority 2015, published 2021).

Tests used:
Type in all cases: biochemical
ITK = target: T1, ITK (Homo sapiens, UniProt Q08881); assay: Inhibition of a panel of kinases, in vitro HotSpot kinase assay: ITK; details: D-compounds panel data; 1 μM ATP
T1 sequence (Q08881 1-620): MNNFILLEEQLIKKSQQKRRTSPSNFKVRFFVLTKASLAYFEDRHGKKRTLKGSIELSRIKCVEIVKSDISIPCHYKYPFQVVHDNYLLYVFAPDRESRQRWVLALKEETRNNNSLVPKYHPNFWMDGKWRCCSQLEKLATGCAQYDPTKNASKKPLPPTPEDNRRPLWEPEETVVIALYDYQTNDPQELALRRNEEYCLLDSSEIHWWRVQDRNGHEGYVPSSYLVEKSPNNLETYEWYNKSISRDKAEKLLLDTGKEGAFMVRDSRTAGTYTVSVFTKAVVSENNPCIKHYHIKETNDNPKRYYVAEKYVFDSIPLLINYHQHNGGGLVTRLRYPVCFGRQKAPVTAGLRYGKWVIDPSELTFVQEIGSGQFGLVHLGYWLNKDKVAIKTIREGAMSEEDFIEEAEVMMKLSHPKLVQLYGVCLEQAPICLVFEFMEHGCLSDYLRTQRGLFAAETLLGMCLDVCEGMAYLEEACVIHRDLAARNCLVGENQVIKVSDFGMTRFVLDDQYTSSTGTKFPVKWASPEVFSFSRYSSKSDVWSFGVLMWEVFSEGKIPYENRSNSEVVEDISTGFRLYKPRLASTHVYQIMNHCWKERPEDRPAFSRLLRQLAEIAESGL
Procedure: (§1) The degree of inhibition of a panel of kinases is determined using the in vitro HotSpot kinase assay (purified enzymes, ^33P-ATP, an appropriate substrate and 1 μM ATP).

JAK3 = target: T2, JAK3 (Homo sapiens, UniProt P52333); assay: Inhibition of a panel of kinases, in vitro HotSpot kinase assay: JAK3; details: D-compounds panel data; 1 μM ATP; read-out: IC50 JAK3
T2 sequence (P52333 1-1124): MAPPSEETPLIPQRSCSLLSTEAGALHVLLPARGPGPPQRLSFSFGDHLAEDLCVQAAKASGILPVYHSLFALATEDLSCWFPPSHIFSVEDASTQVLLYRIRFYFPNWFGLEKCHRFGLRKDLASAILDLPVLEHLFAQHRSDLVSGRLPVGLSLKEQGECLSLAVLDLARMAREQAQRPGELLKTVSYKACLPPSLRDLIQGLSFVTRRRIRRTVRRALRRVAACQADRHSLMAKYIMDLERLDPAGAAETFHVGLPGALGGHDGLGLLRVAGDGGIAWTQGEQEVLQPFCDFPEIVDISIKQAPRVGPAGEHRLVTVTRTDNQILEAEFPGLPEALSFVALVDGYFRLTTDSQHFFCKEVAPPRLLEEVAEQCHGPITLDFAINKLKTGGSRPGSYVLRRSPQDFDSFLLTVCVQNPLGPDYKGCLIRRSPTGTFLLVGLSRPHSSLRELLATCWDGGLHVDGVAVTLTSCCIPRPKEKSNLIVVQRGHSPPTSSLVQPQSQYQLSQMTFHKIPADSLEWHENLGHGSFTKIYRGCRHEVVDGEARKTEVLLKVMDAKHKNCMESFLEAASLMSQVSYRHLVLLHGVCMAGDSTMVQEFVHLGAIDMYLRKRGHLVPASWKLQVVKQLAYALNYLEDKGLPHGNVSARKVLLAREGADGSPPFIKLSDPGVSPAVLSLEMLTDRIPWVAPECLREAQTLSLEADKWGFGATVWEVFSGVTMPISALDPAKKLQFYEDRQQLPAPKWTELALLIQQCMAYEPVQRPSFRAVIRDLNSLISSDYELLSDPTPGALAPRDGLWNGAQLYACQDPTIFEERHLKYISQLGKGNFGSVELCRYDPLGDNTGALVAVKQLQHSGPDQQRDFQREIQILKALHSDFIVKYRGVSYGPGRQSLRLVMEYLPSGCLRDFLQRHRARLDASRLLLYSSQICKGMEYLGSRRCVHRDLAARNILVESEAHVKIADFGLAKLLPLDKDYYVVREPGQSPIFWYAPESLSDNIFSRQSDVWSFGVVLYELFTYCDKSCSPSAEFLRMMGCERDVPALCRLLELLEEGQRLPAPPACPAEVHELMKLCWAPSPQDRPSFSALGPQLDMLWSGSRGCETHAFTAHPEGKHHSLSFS

EGFR = EGFR (Homo sapiens, UniProt P00533); assay: Inhibition of a panel of kinases, in vitro HotSpot kinase assay: EGFR; details: D-compounds panel data; 1 μM ATP
Procedure: as §1

Chain of EGFR (P00533 25-1210): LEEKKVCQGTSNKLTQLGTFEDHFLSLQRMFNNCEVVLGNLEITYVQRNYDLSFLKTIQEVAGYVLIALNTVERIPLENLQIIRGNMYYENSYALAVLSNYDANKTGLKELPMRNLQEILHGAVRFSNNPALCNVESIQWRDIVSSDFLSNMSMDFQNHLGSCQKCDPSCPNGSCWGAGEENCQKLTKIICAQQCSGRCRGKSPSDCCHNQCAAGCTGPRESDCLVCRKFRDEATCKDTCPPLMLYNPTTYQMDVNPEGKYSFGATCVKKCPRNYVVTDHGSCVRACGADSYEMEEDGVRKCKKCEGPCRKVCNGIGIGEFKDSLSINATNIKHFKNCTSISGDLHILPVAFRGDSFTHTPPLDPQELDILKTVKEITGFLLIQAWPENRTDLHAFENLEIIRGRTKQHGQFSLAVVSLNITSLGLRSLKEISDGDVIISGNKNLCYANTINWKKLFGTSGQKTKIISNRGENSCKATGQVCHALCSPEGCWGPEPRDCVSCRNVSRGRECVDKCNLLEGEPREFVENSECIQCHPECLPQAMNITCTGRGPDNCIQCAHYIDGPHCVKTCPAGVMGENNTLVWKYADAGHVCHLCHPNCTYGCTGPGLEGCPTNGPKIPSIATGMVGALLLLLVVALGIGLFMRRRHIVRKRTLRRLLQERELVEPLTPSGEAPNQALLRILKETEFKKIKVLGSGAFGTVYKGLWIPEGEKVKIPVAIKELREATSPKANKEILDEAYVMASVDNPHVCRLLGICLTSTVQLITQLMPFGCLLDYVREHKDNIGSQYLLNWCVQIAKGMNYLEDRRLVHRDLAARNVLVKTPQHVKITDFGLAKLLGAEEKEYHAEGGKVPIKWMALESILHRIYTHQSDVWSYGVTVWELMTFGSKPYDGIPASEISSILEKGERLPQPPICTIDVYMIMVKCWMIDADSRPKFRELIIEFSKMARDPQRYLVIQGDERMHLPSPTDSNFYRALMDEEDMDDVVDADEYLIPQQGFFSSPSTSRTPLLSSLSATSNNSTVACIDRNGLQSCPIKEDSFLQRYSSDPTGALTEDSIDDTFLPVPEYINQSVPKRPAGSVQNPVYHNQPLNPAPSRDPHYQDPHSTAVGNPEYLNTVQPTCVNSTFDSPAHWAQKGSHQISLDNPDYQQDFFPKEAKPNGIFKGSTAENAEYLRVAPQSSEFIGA

SMILES	IC50 (ITK) [nM]	IC50 (JAK3) [nM]	IC50 (EGFR) [nM]
Cc1nn(C)cc1Nc1nc(N2CCC[C@@H](NC(=O)c3ccc(C4CC4)cc3)[C@H]2C)cnc1C(N)=O [Example D-272, 5-[(2R,3R)-3-(4-cyclopropylbenzamido)-2-methylpiperidin-1-yl]-3-[(1,3-dimethyl-1H-pyrazol-4-yl)amino]pyrazine-2-carboxamide]	> 10000	> 10000	1000 to 10000
C[C@@H]1[C@H](NC(=O)c2ccc(C3CC3)cc2)CCCN1c1cnc(C(N)=O)c(Nc2cnn(C(F)F)c2)n1 [Example D-275, 5-[(2R,3R)-3-(4-cyclopropylbenzamido)-2-methylpiperidin-1-yl]-3-{[1-(difluoromethyl)-1H-pyrazol-4-yl]amino}pyrazine-2-carboxamide]	1000 to 10000	> 10000	> 10000
C[C@@H]1[C@H](NC(=O)c2ccc(C3CC3)cc2)CCCN1c1cnc(C(N)=O)c(Nc2cnn(C)c2C(F)(F)F)n1 [Example D-276, 5-[(2R,3R)-3-(4-cyclopropylbenzamido)-2-methylpiperidin-1-yl]-3-{[1-methyl-5-(trifluoromethyl)-1H-pyrazol-4-yl]amino}pyrazine-2-carboxamide]	> 10000	> 10000	> 10000
C[C@@H]1[C@H](NC(=O)c2ccc(C3CC3)cc2)CCCN1c1cnc(C(N)=O)c(Nc2cn(C)nc2C(F)(F)F)n1 [Example D-278, 5-[(2R,3R)-3-(4-cyclopropylbenzamido)-2-methylpiperidin-1-yl]-3-{[1-methyl-3-(trifluoromethyl)-1H-pyrazol-4-yl]amino}pyrazine-2-carboxamide]	> 10000	> 10000	> 10000
C[C@@H]1[C@H](NC(=O)c2ccc(C3CC3)cc2)CCCN1c1cnc(C(N)=O)c(Nc2cn[nH]c2)n1 [Example D-282, 5-[(2R,3R)-3-(4-cyclopropylbenzamido)-2-methylpiperidin-1-yl]-3-[(1H-pyrazol-4-yl)amino]pyrazine-2-carboxamide]	100 to 1000	> 10000	1000 to 10000
CC(=O)N1CCC(n2cc(Nc3nc(N4CCC[C@@H](NC(=O)c5ccc(C6CC6)cc5)[C@H]4C)cnc3C(N)=O)cn2)CC1 [Example D-283, 3-{[1-(1-acetylpiperidin-4-yl)-1H-pyrazol-4-yl]amino}-5-[(2R,3R)-3-(4-cyclopropylbenzamido)-2-methylpiperidin-1-yl]pyrazine-2-carboxamide]	100 to 1000	1000 to 10000	1000 to 10000
C[C@@H]1[C@H](NC(=O)c2ccc(C3CC3)cc2)CCCN1c1cnc(C(N)=O)c(Nc2cnn(-c3ccncc3)c2)n1 [Example D-284, 5-[(2R,3R)-3-(4-cyclopropylbenzamido)-2-methylpiperidin-1-yl]-3-{[1-(pyridin-4-yl)-1H-pyrazol-4-yl]amino}pyrazine-2-carboxamide]	100 to 1000	> 10000	> 10000
C[C@@H]1[C@H](NC(=O)c2ccc(C3CC3)cc2)CCCN1c1cnc(C(N)=O)c(Nc2cnn(CC#N)c2)n1 [Example D-287, 3-{[1-(cyanomethyl)-1H-pyrazol-4-yl]amino}-5-[(2R,3R)-3-(4-cyclopropylbenzamido)-2-methylpiperidin-1-yl]pyrazine-2-carboxamide]	100 to 1000	1000 to 10000	> 10000
C[C@@H]1[C@H](NC(=O)c2ccc(C3CC3)cc2)CCCN1c1cnc(C(N)=O)c(Nc2cnn(C3CCN(C(=O)C4CC4)CC3)c2)n1 [Example D-288, 3-{[1-(1-cyclopropanecarbonylpiperidin-4-yl)-1H-pyrazol-4-yl]amino}-5-[(2R,3R)-3-(4-cyclopropylbenzamido)-2-methylpiperidin-1-yl]pyrazine-2-carboxamide]	100 to 1000	1000 to 10000	1000 to 10000

Next, values leading:

IC50 (ITK) [nM]	IC50 (JAK3) [nM]	IC50 (EGFR) [nM]	SMILES
100 to 1000	1000 to 10000	100 to 1000	CCn1cc(Nc2nc(N3CCC[C@@H](NC(=O)c4ccc(C5CC5)cc4)[C@H]3C)cnc2C(N)=O)cn1 [Example D-273, 5-[(2R,3R)-3-(4-cyclopropylbenzamido)-2-methylpiperidin-1-yl]-3-[(1-ethyl-1H-pyrazol-4-yl)amino]pyrazine-2-carboxamide]
100 to 1000	1000 to 10000	1000 to 10000	C[C@@H]1[C@H](NC(=O)c2ccc(C3CC3)cc2)CCCN1c1cnc(C(N)=O)c(Nc2cnn(C3CCOCC3)c2)n1 [Example D-274, 5-[(2R,3R)-3-(4-cyclopropylbenzamido)-2-methylpiperidin-1-yl]-3-{[1-(oxan-4-yl)-1H-pyrazol-4-yl]amino}pyrazine-2-carboxamide]
100 to 1000	100 to 1000	1000 to 10000	C[C@@H]1[C@H](NC(=O)c2ccc(C3CC3)cc2)CCCN1c1nnc(C(N)=O)c(Nc2cnn(C)c2)n1 [Example D-277, 3-[(2R,3R)-3-(4-cyclopropylbenzamido)-2-methylpiperidin-1-yl]-5-[(1-methyl-1H-pyrazol-4-yl)amino]-1,2,4-triazine-6-carboxamide]
100 to 1000	> 10000	1000 to 10000	C[C@@H]1[C@H](NC(=O)c2ccc(C3CC3)cc2)CCCN1c1cnc(C(N)=O)c(Nc2cnn(C3CC3)c2)n1 [Example D-279, 3-[(1-cyclopropyl-1H-pyrazol-4-yl)amino]-5-[(2R,3R)-3-(4-cyclopropylbenzamido)-2-methylpiperidin-1-yl]pyrazine-2-carboxamide]
10 to 100	1000 to 10000	1000 to 10000	C[C@@H]1[C@H](NC(=O)c2ccc(C3CC3)cc2)CCCN1c1cnc(C(N)=O)c(Nc2cnn(C3CCNCC3)c2)n1 [Example D-280, 5-[(2R,3R)-3-(4-cyclopropylbenzamido)-2-methylpiperidin-1-yl]-3-{[1-(piperidin-4-yl)-1H-pyrazol-4-yl]amino}pyrazine-2-carboxamide]
100 to 1000	1000 to 10000	1000 to 10000	C[C@@H]1[C@H](NC(=O)c2ccc(C3CC3)cc2)CCCN1c1cnc(C(N)=O)c(Nc2cnn(CCO)c2)n1 [Example D-281, 5-[(2R,3R)-3-(4-cyclopropylbenzamido)-2-methylpiperidin-1-yl]-3-{[I-(2-hydroxyethyl)-1H-pyrazol-4-yl]amino}pyrazine-2-carboxamide]
10 to 100	100 to 1000	1000 to 10000	C[C@@H]1[C@H](NC(=O)c2ccc(C(C)(C)C)cc2)CCCN1c1nnc(C(N)=O)c(Nc2cnn(C)c2)n1 [Example D-285, 3-[(2R,3R)-3-(4-tert-butylbenzamido)-2-methylpiperidin-1-yl]-5-[(1-methyl-1H-pyrazol-4-yl)amino]-1,2,4-triazine-6-carboxamide]
10 to 100	1000 to 10000	1000 to 10000	C[C@@H]1[C@H](NC(=O)N(C)C)CCCN1c1nnc(C(N)=O)c(Nc2cnn(C)c2)n1 [Example D-286, 3-[(2R,3R)-3-[(dimethylcarbamoyl)amino]-2-methylpiperidin-1-yl]-5-[(1-methyl-1H-pyrazol-4-yl)amino]-1,2,4-triazine-6-carboxamide]
